Assay results from PubChem BioAssay AID1963440 (Molecular Pharmacology Branch, DTP, NCI, 2024).

Tested on: NCI-H1417 complex spheroids, growth % test/control
Test: Anticancer human tumor NCI-H1417 cell line growth inhibition [Asc];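 further: spheroids exposed to compounds for 7 days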;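 on viability, T/C: 100% = DMSO vehicle control wells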
Conditions: for IC50: curve of first compound; for viability, T/C: stronger effect = lower value
Description: Multicellular complex tumor spheroid response to apoptosis pathway targeting inhibitors Alrizomadlin, Pelcitoclax, and Dasminapant in combination with a variety of drugs and investigational agents in selected tumor cell lines
The MDM2 inhibitor alrizomadlin, the Bcl-2/Bcl-xL inhibitor pelcitoclax, and the IAPs inhibitor dasminapant were evaluated both individually and in combination with standard of care and investigational anticancer small molecules within a complex spheroid model of solid tumors. . Complex spheroids include a stromal component modeled by human endothelial cells (HUVEC) and fibroblasts modeled by human mesenchymal stem cells (MSCs). The concentration ranges selected for each drug and investigational agent were based upon clinically achievable concentrations if the clinical Cmax of the agent was known.
Compounds. The drugs and investigational agents: alrizomadlin (APG-115; NSC831270), pelcitoclax (APG-1252; NSC835773), dasminapant (APG-1387;NSC834197), TAK-243 (NSC785004), copanlisib (NSC809693), olaparib (NSC753686), talazoparib (NSC767125), cobimetinib (NSC 768068), eltanexor (KPT-8602, NSC 794443), abemaciclib (NSC 768073), sotorasib (NSC818433), adagrasib (NSC 831453), MRTX-1133 (NSC 836407), Iadademestat (ORY1001, NSC 806812), and RMC-4630 (NSC839698), were obtained from the NCI Developmental Therapeutics Program Chemical Repository. The FDA-approved anticancer drug set is available from the Developmental Therapeutics Program at https://dtp.cancer.gov/organization/dscb/obtaining/available plates.htm. […] The stock solutions were prepared in dimethyl sulfoxide (DMSO, Sigma-Aldrich, St. Louis, MO, cat. D2650) at 800-fold the tested concentration and stored at -70 degrees C prior to their use. All drugs and investigational agents were tested over a range starting from a high concentration at or near the clinical Cmax and decreasing in half-log increments. If the clinical Cmax for an agent had not been determined, the highest concentration tested was 10 microM.
The patient-derived cancer (PDC) cell lines include five colon adenocarcinomas: 186277-243-T-J2-PDC, 616215-338-R-J1-PDC, 439559-082-T-J2-PDC, 463943-066-T-J2-PDC, and 519858-162-T-J1-PDC; three pancreatic carcinomas: 323965-272-R-J2-PDC, 521955-158-R6-J3-PDC, and 521955-158-R2-J5-PDC; two uterine sarcomas: 327498-152-R-J2-PDC and 993429-296-R-J1-PDC; two rhabdomyosarcomas: 755483-174-R-J1-PDC and 772245-204-R-J1-PDC; two soft tissue sarcomas: 126254-015-R-J1-PDC and 494315-158-R-J1-PDC; two malignant fibrous histiocytomas: 317291-083-R-J1-PDC and 596521-263-R-J1-PDC; two breast carcinomas: 171881-019-R-J1-PDC and 885512-296-R-J2-PDC; and one ovarian carcinoma: 6556581-035-R-J-PDC were obtained from the NCI PDMR, (https://pdmr.cancer.gov). The established cell lines HSSY-2 synovial sarcoma (RRID:CVCL 8719), SYO-1 synovial sarcoma (RRID:CVCL_7146), MPNST malignant peripheral neural sheath tumor were obtained from the Sloan Kettering Institute. The following established cell lines were purchased from the American Type Culture Collection (ATCC, Manassas, VA), Sor the received from the NCI repository:, PANC-1 pancreatic carcinoma (CRL-1469, RRID:CVCL_0480), OVCAR-5 ovarian carcinoma (RRID:CVCL_1628), OVCAR-8 ovarian carcinoma (RRID:CVCL_1629), , MCF-7 breast carcinoma (CRL-12584, RRID:CVCL_0031), MDA-MB-231 breast carcinoma (CRL-12532, RRID:CVCL_0062), NCI-H1876 small cell lung carcinoma (CRL-5902, RRID:CVCL_1503), NCI-H510A small cell lung carcinoma (HTB-184, RRID:CVCL_1565), NCI-H1417 (CRL-5869, RRID:CVCL_1469), and NCI-H196 small cell lung carcinoma (CRL-5823, RRID:CVCL_1509). Dr. Peter Houghton (Greehey Children's Cancer Research Institute, University of Texas Health Science Center, San Antonio, TX) provided Rh-18 rhabdomyosarcoma (RRID:CVCL_1659). Pooled donor human umbilical vein endothelial cells (HUVEC, Lonza, cat. CC-2519) and human mesenchymal stem cells (hMSC, Lonza, cat. PT-2501) were purchased from Lonza (Walkersville, MD).
Cell Culture. […]

NC(=O)C(=Cn1cnc(-c2cc(C(F)(F)F)cc(C(F)(F)F)c2)n1)c1cncnc1 + CCN1C(C(=O)NC23CCC(C(=O)O)(CC2)CC3)C(c2cccc(Cl)c2F)C2(C(=O)Nc3cc(Cl)ccc32)C12CCCCC2
IC50 (second compound 0.03 µM): 128 nM
IC50 (second compound 0.0949 µM): 104 nM
IC50 (second compound 0.3 µM): 100 nM
IC50 (second compound 0.949 µM): 102 nM
IC50 (second compound 3 µM): 59.1 nM
viability, T/C (second compound 0.03 µM, first compound 0.000949 µM): 95.9%
viability, T/C (second compound 0.03 µM, first compound 0.003 µM): 112%
viability, T/C (second compound 0.03 µM, first compound 0.00949 µM): 93.5%
viability, T/C (second compound 0.03 µM, first compound 0.03 µM): 96%
viability, T/C (second compound 0.03 µM, first compound 0.0949 µM): 59.7%
viability, T/C (second compound 0.03 µM, first compound 0.3 µM): 21.9%
viability, T/C (second compound 0.0949 µM, first compound 0.000949 µM): 96.7%
viability, T/C (second compound 0.0949 µM, first compound 0.003 µM): 101%
viability, T/C (second compound 0.0949 µM, first compound 0.00949 µM): 97.2%
viability, T/C (second compound 0.0949 µM, first compound 0.03 µM): 87%
viability, T/C (second compound 0.0949 µM, first compound 0.0949 µM): 52.9%
viability, T/C (second compound 0.0949 µM, first compound 0.3 µM): 18.9%
viability, T/C (second compound 0.3 µM, first compound 0.000949 µM): 97.7%
viability, T/C (second compound 0.3 µM, first compound 0.003 µM): 97%
viability, T/C (second compound 0.3 µM, first compound 0.00949 µM): 96.2%
viability, T/C (second compound 0.3 µM, first compound 0.03 µM): 87.3%
viability, T/C (second compound 0.3 µM, first compound 0.0949 µM): 51.6%
viability, T/C (second compound 0.3 µM, first compound 0.3 µM): 19.1%
viability, T/C (second compound 0.949 µM, first compound 0.000949 µM): 93.6%
viability, T/C (second compound 0.949 µM, first compound 0.003 µM): 96.3%
viability, T/C (second compound 0.949 µM, first compound 0.00949 µM): 85.1%
viability, T/C (second compound 0.949 µM, first compound 0.03 µM): 73.9%
viability, T/C (second compound 0.949 µM, first compound 0.0949 µM): 52.6%
viability, T/C (second compound 0.949 µM, first compound 0.3 µM): 18.8%
viability, T/C (second compound 3 µM, first compound 0.000949 µM): 97.5%
viability, T/C (second compound 3 µM, first compound 0.003 µM): 98.8%
viability, T/C (second compound 3 µM, first compound 0.00949 µM): 81.3%
viability, T/C (second compound 3 µM, first compound 0.03 µM): 67.9%
viability, T/C (second compound 3 µM, first compound 0.0949 µM): 38.1%
viability, T/C (second compound 3 µM, first compound 0.3 µM): 16.3%

CCN1CCN(Cc2ccc(Nc3ncc(F)c(-c4cc(F)c5nc(C)n(C(C)C)c5c4)n3)nc2)CC1 + CCN1C(C(=O)NC23CCC(C(=O)O)(CC2)CC3)C(c2cccc(Cl)c2F)C2(C(=O)Nc3cc(Cl)ccc32)C12CCCCC2
IC50 (second compound 0.03 µM): > 1000 nM
IC50 (second compound 0.0949 µM): > 1000 nM
IC50 (second compound 0.3 µM): > 1000 nM
IC50 (second compound 0.949 µM): > 1000 nM
IC50 (second compound 3 µM): > 1000 nM
viability, T/C (second compound 0.03 µM, first compound 0.00316 µM): 108%
viability, T/C (second compound 0.03 µM, first compound 0.01 µM): 110%
viability, T/C (second compound 0.03 µM, first compound 0.0316 µM): 93.6%
viability, T/C (second compound 0.03 µM, first compound 0.1 µM): 93.8%
viability, T/C (second compound 0.03 µM, first compound 0.316 µM): 97.8%
viability, T/C (second compound 0.03 µM, first compound 1 µM): 83%
viability, T/C (second compound 0.0949 µM, first compound 0.00316 µM): 103%
viability, T/C (second compound 0.0949 µM, first compound 0.01 µM): 104%
viability, T/C (second compound 0.0949 µM, first compound 0.0316 µM): 92.7%
viability, T/C (second compound 0.0949 µM, first compound 0.1 µM): 98.2%
viability, T/C (second compound 0.0949 µM, first compound 0.316 µM): 94%
viability, T/C (second compound 0.0949 µM, first compound 1 µM): 91.5%
viability, T/C (second compound 0.3 µM, first compound 0.00316 µM): 103%
viability, T/C (second compound 0.3 µM, first compound 0.01 µM): 100%
viability, T/C (second compound 0.3 µM, first compound 0.0316 µM): 110%
viability, T/C (second compound 0.3 µM, first compound 0.1 µM): 102%
viability, T/C (second compound 0.3 µM, first compound 0.316 µM): 95.7%
viability, T/C (second compound 0.3 µM, first compound 1 µM): 81.2%
viability, T/C (second compound 0.949 µM, first compound 0.00316 µM): 87.2%
viability, T/C (second compound 0.949 µM, first compound 0.01 µM): 93.1%
viability, T/C (second compound 0.949 µM, first compound 0.0316 µM): 88.2%
viability, T/C (second compound 0.949 µM, first compound 0.1 µM): 91.1%
viability, T/C (second compound 0.949 µM, first compound 0.316 µM): 88.8%
viability, T/C (second compound 0.949 µM, first compound 1 µM): 78.4%
viability, T/C (second compound 3 µM, first compound 0.00316 µM): 99.5%
viability, T/C (second compound 3 µM, first compound 0.01 µM): 91.1%
viability, T/C (second compound 3 µM, first compound 0.0316 µM): 98.8%
viability, T/C (second compound 3 µM, first compound 0.1 µM): 91.4%
viability, T/C (second compound 3 µM, first compound 0.316 µM): 83.8%
viability, T/C (second compound 3 µM, first compound 1 µM): 75.1%
